The species entered for one test is Oryctolagus cuniculus. Nature of the test: Evaluated in vitro for the inhibition of KCl-induced contraction of isolated rabbit aorta rings. It counts as functional.
A further test deals with Canis familiaris. Nature of the test: In vivo antihypertensive activity against anaesthetized dogs after intravenous administration of specified threshold dose. Type of test: functional, Canis lupus familiaris.

Values after ≈ are worked out from the molar mass of the structure shown.

The IC50 is the midpoint of a concentration-inhibition curve. Low values mean higher potency, high ones lower potency.

In the test filed under Oryctolagus cuniculus, `COC(=O)C1=C(C)NC(C)=C(C(=O)OC)C1c1ccccc1` displayed a 50% inhibitory concentration (IC50) of 0.04 µg/mL (≈ 0.133 µM). The compound further yielded a Dose in the test on Canis familiaris of 0.05 mg/kg.

In the test listed under Oryctolagus cuniculus, `CCC1(c2ccccc2)C(C(=O)OC)=C(C)N=C(C)/C1=C(/O)OC` (stereo unspecified) registered an IC50 of 3.6 µg/mL (≈ 10.9 µM).

In the test filed under Oryctolagus cuniculus, `CCOC(=O)C1=C(C)N=C(C)/C(=C(/O)OCC)C1c1cccnc1` (stereo unspecified) gave an IC50 of 0.5 µg/mL (≈ 1.51 µM). Also, in the test with Canis familiaris, the Dose was 0.3 mg/kg.

In the test listed under Oryctolagus cuniculus, `CCOC(=O)C1=C(C)N=C(C)/C(=C(/O)OCC)C1(C)c1cccnc1` (stereo unspecified) gave an IC50 of 9 µg/mL (≈ 26.1 µM). In the test on Canis familiaris, this compound came in with a Dose of 3 mg/kg.

On to `COC(=O)C1=C(C)N=C(C)/C(=C(/O)OC)C1(C)c1cccc([N+](=O)[O-])c1` (stereo unspecified), for which the IC50 in the test filed under Oryctolagus cuniculus was found to be 2.3 µg/mL (≈ 6.38 µM). For the same compound, the Dose in the test with Canis familiaris is 0.3 mg/kg.

Take `COC(=O)C1=C(C)N=C(C)/C(=C(/O)OC)C1(C)c1ccccc1` (stereo unspecified): the IC50 in the test filed under Oryctolagus cuniculus turned out to be 1.2 µg/mL (≈ 3.81 µM). This compound came in with a Dose with Canis familiaris of 3 mg/kg.

The values above are taken from ChEMBL document CHEMBL1124767, “Synthesis, pharmacological effects, and conformation of 4,4-disubstituted 1,4-dihydropyridines” (J Med Chem, 1990).
